Experimental data reported in patent US12029751B2, “Therapeutic agent for nervous system disease” (OSAKA UNIVERSITY, priority 2017, dated 2024).

Tests used:
[1] = system: rat sciatic nerve crush injury model; test: Nerve regeneration after sciatic nerve injury (axons, myelinated axons, myelination rate); type: in vivo; settings: for Myelination ratio / Number of axons / Number of myelinated axons: POD14
From the text: Six-week-old male Wistar rats (about 200 g) were used. The left sciatic nerve was exteriorized, and crush injury of the sciatic nerve was made on the proximal side by forceps. The nerve was crushed for 10 seconds three times at 10-second intervals. The fascia and skin were sutured using 3-0 nylon. A non-injury group which underwent only sciatic nerve exposure, an untreated group, and a methylcobalamin treatment group were compared. To administer methylcobalamin continuously, an osmotic minipump was placed and left in the dorsal subcutaneous space, and methylcobalamin was administered at a dose of 1 mg/kg/day. In an untreated group, physiological saline was administered instead of methylcobalamin according to the same procedure.
At 1, 3, 7, and 14 days after the surgery, rats were anesthetized with an anesthetic agent. The left sciatic nerve was collected, fixed with 4% PFA for 7 days and with 20% sucrose for 24 hours, and the fixed nerve was freeze-embedded. The embedded tissue was sliced into a 5-μm-thick slice in a nerve short-axis direction and placed on a glass slide. Slices were obtained from 5 positions of 2.5 mm in the proximal direction from an injured region, the injured region, and 2.5, 5.0, and 7.5 mm in the distal direction. The slices were dried for 1 hour and fixed with 95% methanol for 30 minutes. The fixed slices were blocked and allowed to react with primary antibodies at 4° C. overnight. The cells were further allowed to react with a secondary antibody at room temperature for 1 hour so that the nuclei were labeled with DAPI.
The primary antibodies used were a mouse anti-CD68 monoclonal antibody (Abcam), a rabbit anti-iNOS monoclonal antibody (Abcam), a rabbit anti-CD206 monoclonal antibody (Abeam), a rabbit anti-neurofilament 200 (NF 200) polyclonal antibody (SIGMA), and a mouse anti-myelin basic protein (MBP) monoclonal antibody (Calbiochem). The secondary antibodies used were an Alexa 488-labeled goat anti-mouse IgG antibody (Life Technologies), an Alexa 488-labeled goat anti-rabbit IgG antibody (Life Technologies), an Alexa 568-labeled goat anti-mouse IgG antibody (Life Technologies), and an Alexa 568-labeled goat anti-rabbit IgG antibody (Life Technologies).
Effects of methylcobalamin on nerve regeneration after sciatic nerve injury were analyzed by an immunohistological evaluation method. Specifically, the analysis was carried out as follows. Transvers sections of an injured sciatic nerve obtained at 2 weeks after sciatic nerve injury were used for evaluation. As in the macrophage evaluation, evaluations were carried out for the sections at 2.5 mm in the proximal direction from an injury site, the injury site, and 2.5, 5.0, and 7.5 mm in the distal direction. Regenerated axons were labeled with NF 200, and myelin sheaths were labeled with MBP. The myelination rate of the regenerated axons was calculated by the following formula: Myelination rate (%)=number of myelinated axons per mm^2/number of axons per mm^2×100. More specifically, the analysis was performed in the same manner as in Example 7.

[2] = system: cerebral cortical neurons; test: TUNEL assay, apoptosis inhibiting effect on cerebral cortical neurons; type: cell-based, rat; settings: after 18 hours
From the text: Cerebral cortical neurons were collected and cultured by a conventional method. Cerebral cortex was dissected from a fetus of a Sprague-Dawley (SD) rat (18th day of pregnancy) and recovered in ice-cooled Dulbecco's Modified Eagle Medium (DMEM) containing 10% fetal bovine serum (FBS) and 1% penicillin/streptomycin. The pia mater and blood vessels were removed, and the remaining cerebral cortex was transferred to DMEM (containing 1% penicillin/streptomycin and no FBS) and cut into small pieces having a size of 1 mm by surgical scissors. Papain (final concentration, 2 mg/ml) was added to the cell mixture, and the mixture was allowed to react at 37° C. for 30 minutes. DNase I (70 U/ml) was added to the reaction mixture and reaction was carried out for 30 seconds. Then, DMEM containing 10% FBS and 1% penicillin/streptomycin was added to terminate the reaction. The cell mixture was centrifuged at 800 rpm, the residue was re-suspended in DMEM containing 10% FBS and 1% penicillin/streptomycin, and the suspension was seeded on a dish coated with poly-L lysine (PLL). At 4 hours after the cell seeding, the medium was replaced with Neurobasal medium (containing 10% B27 supplement and 1% penicillin/streptomycin).
To the cerebral cortical neurons (Example 1-1) cultured on a PLL-coated 8-well chamber slide, 20 mM glutamic acid and […] methylcobalamin (MeCbl) were added. After 18 hours, the proportion of apoptotic cells was evaluated using Promega's DeadEnd Fluorometric TUNEL System. Cells were fixed with 4% paraformaldehyde (PFA) at 4° C. for 25 minutes. After cells were permeabilized with 0.2% Triton X-100 for 5 minutes, an incubation buffer was added, and the mixture was left stand at 37° C. with light shielding for 60 minutes to label the permeabilized cells. The nuclei were labeled with 4′6-diamidino-2-phenylindole (DAPI). The total cell number and the number of TUNEL-positive cells were determined.

[3] = 5.0 and 7.5 mm in the distal direction, 2 weeks after injury
[4] = 2.5 mm in the proximal direction
[5] = injury site, 2 weeks after sciatic nerve injury, 1 mg/kg/day

For C/C1=C2/[N-][C@H]([C@H](CC(N)=O)[C@@]2(C)CCC(=O)NC[C@@H](C)OP(=O)([O-])O[C@H]2[C@@H](O)[C@@H](n3cnc4cc(C)c(C)cc43)O[C@@H]2CO)[C@]2(C)N=C(/C(C)=C3N=C(/C=C4N=C1[C@@H](CCC(N)=O)C\4(C)C)[C@@H](CCC(N)=O)[C@]\3(C)CC(N)=O)[C@@H](CCC(N)=O)[C@]2(C)CC(N)=O.[CH3-].[Co+3] [MeCbl, methylcobalamin], the “myelination rate as compared to the untreated group” value [1, 3] was “significant differences”, the “numbers of axons as compared to the untreated group” value [1, 3] was “significant differences” and the Myelination ratio ([1]; 2.5 mm in the distal direction) was 0.531. The Number of axons ([1]; 2.5 mm in the distal direction) was 14478, the “Number of myelinated axons” value ([1]; 2.5 mm in the distal direction) was 7620 and the Myelination ratio [1, 4] was 0.975. The Number of axons [1, 4] was 16251, the “Number of myelinated axons” value [1, 4] was 15838 and the Myelination ratio ([1]; 5.0 mm in the distal direction) was 0.253. For the same molecule, the Number of axons ([1]; 5.0 mm in the distal direction) was 16663, the “Number of myelinated axons” value ([1]; 5.0 mm in the distal direction) was 4400 and the Myelination ratio ([1]; 7.5 mm in the distal direction) was 0.163. The Number of axons ([1]; 7.5 mm in the distal direction) was 14678, the “Number of myelinated axons” value ([1]; 7.5 mm in the distal direction) was 2473 and the Myelination ratio ([1]; Injury site) was 0.691. The Number of axons ([1]; Injury site) was 14210, the “Number of myelinated axons” value ([1]; Injury site) was 9785 and the “numbers of axons as compared to the untreated group” value [1, 5] was “significantly improved”. The “numbers of myelinated axons as compared to the untreated group” value [1, 5] was “significantly improved”, the “proportion of apoptotic cells” value ([2]; 20 mM glutamic acid + methylcobalamin) was 5.6% and the “proportion of apoptotic cells” value ([2]; 20 mM glutamic acid + methylcobalamin, listed as methylcobalamin) was “significantly decreased to the level of the control”. The “proportion of apoptotic cells” value ([2]; MeCbl alone (Glutamate −), methylcobalamin) was 5.9%.
